What was measured:
Assay type in all cases: in vivo
[1] = test system: Pharbitis purpurea (PHBPU); assay: Pre-emergence herbicidal action; conditions: 320 g/ha, visual scoring after about 3 weeks vs untreated controls, 100% = plants have died
From the text: (§1) The abbreviations used here have the following meanings: • ABUTH Abutilon theophrasti • AMARE Amaranlhus retroflexus • CYPES Cyperus serotinus • ECHCGEchinocloa crus galli • LOLRI Lolium rigidum Gaudin • PHBPU Pharbitis purpurcum • SETVI Setaria viridis • VERPE Veronica persica • ALOMY Alopccurus myosuroides • AVEFA Avena fatua • DIGSA Digitaria sanguinalis • LOLMU Lolium multiflorum • MATIN Matricaria inodora • POLCO Polygonum convolvulus • STEME Stellaria media • VIOTR Viola tricolor
(§2) Seeds of monocotyledonous and dicotyledonous weed plants and crop plants are placed in plastic or organic plant pots and covered with soil. The compounds of the invention, formulated in the form of wettable powders (WP) or as emulsion concentrates (EC), are then applied onto the surface of the covering soil as aqueous suspension or emulsion with addition of 0.5% additive at a water application rate of 600 l/ha (converted). After the treatment, the pots are placed in a greenhouse and kept under good growth conditions for the trial plants. After about 3 weeks, the effect of the preparations is scored visually in comparison with untreated controls as percentages. For example, 100% activity=the plants have died, 0% activity=like control plants.

[2] = test system: Digitaria sanguinalis (DIGSA); assay: Pre-emergence herbicidal action; conditions: 320 g/ha, visual scoring after about 3 weeks vs untreated controls, 100% = plants have died
From the text: as §1, §2

[3] = test system: Lolium rigidum Gaudin (LOLRI); assay: Pre-emergence herbicidal action; conditions: 320 g/ha, visual scoring after about 3 weeks vs untreated controls, 100% = plants have died
From the text: as §1, §2

Avena fatua (AVEFA) [4] = assay: Pre-emergence herbicidal action; conditions: 320 g/ha, visual scoring after about 3 weeks vs untreated controls, 100% = plants have died
From the text: as §1, §2

Veronica persica (VERPE) [5] = assay: Pre-emergence herbicidal action; conditions: 320 g/ha, visual scoring after about 3 weeks vs untreated controls, 100% = plants have died
From the text: as §1, §2

[6] = test system: Amaranthus retroflexus (AMARE); assay: Pre-emergence herbicidal action; conditions: 320 g/ha, visual scoring after about 3 weeks vs untreated controls, 100% = plants have died
From the text: as §1, §2

[7] = test system: Alopecurus myosuroides (ALOMY); assay: Post-emergence herbicidal action; conditions: for Herbicidal action against ALOMY: 80 g of a.i./ha, comparative test; for Post-emergence action ALOMY: 320 g/ha, visual rating after about 3 weeks vs untreated controls, 100% = plants have died
Method: (§3) Seeds of monocotyledonous and dicotyledonous weeds and crop plants are placed in sandy loam in plastic or organic plant pots, covered with soil and cultivated in a greenhouse under controlled growth conditions. 2 to 3 weeks after sowing, the test plants are treated at the one-leaf stage. The compounds of the invention, formulated in the form of wettable powders (WP) or as emulsion concentrates (EC), are then sprayed onto the green parts of the plants as aqueous suspension or emulsion with addition of 0.5% additive at a water application rate of 600 l/ha (converted). After the test plants have been kept in the greenhouse under optimum growth conditions for about 3 weeks, the activity of the preparations is rated visually in comparison to untreated controls. For example, 100% activity=the plants have died, 0% activity=like control plants.
as §1
(§4) The compounds according to the invention were tested by the post-emergence and pre-emergence methods under the conditions described above for comparative purposes with the structurally closest compounds known from WO 2005/089551 A1 (D1).

[8] = test system: Echinochloa crus-galli (ECHCG); assay: Post-emergence herbicidal action; conditions: for Herbicidal action against ECHCG: 80 g of a.i./ha, comparative test; for Post-emergence action ECHCG: 320 g/ha, visual rating after about 3 weeks vs untreated controls, 100% = plants have died
Method: as §3, §1, §4

Setaria viridis (SETVI) [9] = assay: Post-emergence herbicidal action; conditions: for Herbicidal action against SETVI: 80 g of a.i./ha, comparative test; for Post-emergence action SETVI: 320 g/ha, visual rating after about 3 weeks vs untreated controls, 100% = plants have died
Method: as §3, §1, §4

[10] = test system: Matricaria inodora (MATIN); assay: Post-emergence herbicidal action; conditions: for Herbicidal action against MATIN: 80 g of a.i./ha, comparative test
Method: as §3, §1, §4

[11] = test system: harmful plants such as Alopecurus myosuroides, Amaranthus retroflexus, Avena fatua, Echinochloa crus-galli, Matricaria inodora, Pharbitis purpurea, Polygonum …; assay: Pre-emergence herbicidal action, summary in text; conditions: pre-emergence treatment
From the text: as §2
At the same time, some compounds according to the invention leave graminaceous crops such as barley, wheat, rye, millet/sorghum, maize, rice or sugarcane virtually undamaged when applied by the pre-emergence method, even at high active compound dosages. Some compounds are additionally also benign to dicotyledonous crops such as soya, cotton, oilseed rape or sugarbeet.

[12] = test system: Alopecurus myosuroides (ALOMY); assay: Pre-emergence herbicidal action; conditions: for Herbicidal action against ALOMY: 80 g of a.i./ha, comparative test; for Pre-emergence action ALOMY: 320 g/ha, visual scoring after about 3 weeks vs untreated controls, 100% = plants have died
From the text: as §1, §2, §4

Stellaria media (STEME) [13] = assay: Pre-emergence herbicidal action; conditions: for Herbicidal action against STEME: 80 g of a.i./ha, comparative test; for Pre-emergence action STEME: 320 g/ha, visual scoring after about 3 weeks vs untreated controls, 100% = plants have died
From the text: as §1, §2, §4

[14] = test system: Polygonum convolvulus (POLCO); assay: Pre-emergence herbicidal action; conditions: for Herbicidal action against POLCO: 80 g of a.i./ha, comparative test; for Pre-emergence action POLCO: 320 g/ha, visual scoring after about 3 weeks vs untreated controls, 100% = plants have died
From the text: as §1, §2, §4

[15] = test system: Echinochloa crus-galli (ECHCG); assay: Pre-emergence herbicidal action; conditions: for Herbicidal action against ECHCG: 80 g of a.i./ha, comparative test; for Pre-emergence action ECHCG: 320 g/ha, visual scoring after about 3 weeks vs untreated controls, 100% = plants have died
From the text: as §1, §2, §4

Viola tricolor (VIOTR) [16] = assay: Pre-emergence herbicidal action; conditions: for Herbicidal action against VIOTR: 80 g of a.i./ha, comparative test; for Pre-emergence action VIOTR: 320 g/ha, visual scoring after about 3 weeks vs untreated controls, 100% = plants have died
From the text: as §1, §2, §4

Setaria viridis (SETVI) [17] = assay: Pre-emergence herbicidal action; conditions: for Herbicidal action against SETVI: 80 g of a.i./ha, comparative test; for Pre-emergence action SETVI: 320 g/ha, visual scoring after about 3 weeks vs untreated controls, 100% = plants have died
From the text: as §1, §2, §4

[18] = test system: Matricaria inodora (MATIN); assay: Pre-emergence herbicidal action; conditions: for Herbicidal action against MATIN: 80 g of a.i./ha, comparative test; for Pre-emergence action MATIN: 320 g/ha, visual scoring after about 3 weeks vs untreated controls, 100% = plants have died
From the text: as §1, §2, §4

[19] = test system: Pharbitis purpurea (PHBPU); assay: Post-emergence herbicidal action; conditions: 320 g/ha, visual rating after about 3 weeks vs untreated controls, 100% = plants have died
Method: as §3, §1

Viola tricolor (VIOTR) [20] = assay: Post-emergence herbicidal action; conditions: 320 g/ha, visual rating after about 3 weeks vs untreated controls, 100% = plants have died
Method: as §3, §1

[21] = test system: Lolium rigidum Gaudin (LOLRI); assay: Post-emergence herbicidal action; conditions: 320 g/ha, visual rating after about 3 weeks vs untreated controls, 100% = plants have died
Method: as §3, §1

Veronica persica (VERPE) [22] = assay: Post-emergence herbicidal action; conditions: 320 g/ha, visual rating after about 3 weeks vs untreated controls, 100% = plants have died
Method: as §3, §1

[23] = test system: Amaranthus retroflexus (AMARE); assay: Post-emergence herbicidal action; conditions: 320 g/ha, visual rating after about 3 weeks vs untreated controls, 100% = plants have died
Method: as §3, §1

[24] = test system: Lolium multiflorum (LOLMU); assay: Pre-emergence herbicidal action; conditions: 320 g/ha, visual scoring after about 3 weeks vs untreated controls, 100% = plants have died
From the text: as §1, §2

[25] = test system: Abutilon theophrasti (ABUTH); assay: Pre-emergence herbicidal action; conditions: 320 g/ha, visual scoring after about 3 weeks vs untreated controls, 100% = plants have died
From the text: as §1, §2

[26] = test system: harmful plants such as Abutilon theophrasti, Alopecurus myosuroides, Amaranthus retroflexus, Avena fatua, Echinochloa crus-galli, Matricaria inodora, Pharbitis …; assay: Post-emergence herbicidal action, summary in text; conditions: post-emergence treatment
Method: as §3
In this case, for example, in the post-emergence process, the compounds No. 1-001 and 111-001 have very good herbicidal activity (80% to 100% herbicidal action) against harmful plants such as Abutilon theophrasti, Alopecurus myosuroides, Amaranthus retroflexus, Avena fatua, Echinochloa crus-galli, Matricaria inodora, Pharbitis purpurea, Setaria viridis, Stellaria media, Veronica persica and Viola tricolor at an application rate of 0.32 kg of active substance or less per hectare. At the same time, some compounds according to the invention leave graminaceous crops such as barley, wheat, rye, millet/sorghum, maize, rice or sugarcane virtually undamaged when applied by the post-emergence method, even at high active compound dosages. Some substances are additionally also benign to dicotyledonous crops such as soya, cotton, oilseed rape or sugarbeet.

Stellaria media (STEME) [27] = assay: Post-emergence herbicidal action
Method: as §3, §1, §4

[28] = test system: Polygonum convolvulus (POLCO); assay: Post-emergence herbicidal action
Method: as §3, §1, §4

Avena fatua (AVEFA) [29] = assay: Post-emergence herbicidal action
Method: as §3, §1, §4

[30] = test system: Lolium multiflorum (LOLMU); assay: Post-emergence herbicidal action
Method: as §3, §1, §4

[31] = test system: Abutilon theophrasti (ABUTH); assay: Post-emergence herbicidal action
Method: as §3, §1, §4

[32] = 80 g of a.i./ha, comparative test
[33] = 320 g/ha, visual rating after about 3 weeks vs untreated controls, 100% = plants have died

## FC(F)Oc1cc(Oc2nc(C3CC3)cc(-n3cc(C(F)(F)F)cn3)n2)ccn1 [Example I-003]
[1]
  Pre-emergence action PHBPU: 100%
[2]
  Pre-emergence action DIGSA: 100%
[3]
  Pre-emergence action LOLRI: 100%
Avena fatua (AVEFA) [4]
  Pre-emergence action AVEFA: 90%
Veronica persica (VERPE) [5]
  Pre-emergence action VERPE: 100%
[6]
  Pre-emergence action AMARE: 100%
[7]
  Herbicidal action against ALOMY: 60%
  Post-emergence action ALOMY: 90%
[8]
  Herbicidal action against ECHCG: 80%
  Post-emergence action ECHCG: 90%
Setaria viridis (SETVI) [9]
  Herbicidal action against SETVI: 60%
  Post-emergence action SETVI: 80%
[10]
  Herbicidal action against MATIN: 60%
[11]
  herbicidal action against harmful plants (in words): good herbicidal action
[12]
  Herbicidal action against ALOMY: 60%
  Pre-emergence action ALOMY: 100%
Stellaria media (STEME) [13]
  Herbicidal action against STEME: 90%
  Pre-emergence action STEME: 100%
[14]
  Herbicidal action against POLCO: 20%
  Pre-emergence action POLCO: 90%
[15]
  Herbicidal action against ECHCG: 30%
  Pre-emergence action ECHCG: 90%
Viola tricolor (VIOTR) [16]
  Herbicidal action against VIOTR: 100%
  Pre-emergence action VIOTR: 100%
Setaria viridis (SETVI) [17]
  Herbicidal action against SETVI: 100%
  Pre-emergence action SETVI: 100%
[18]
  Herbicidal action against MATIN: 90%
  Pre-emergence action MATIN: 90%
[19]
  Post-emergence action PHBPU: 80%
Viola tricolor (VIOTR) [20]
  Post-emergence action VIOTR: 90%
[21]
  Post-emergence action LOLRI: 90%
Veronica persica (VERPE) [22]
  Post-emergence action VERPE: 90%
[23]
  Post-emergence action AMARE: 90%

## Cn1nc(C(F)(F)F)cc1Oc1nc(C2CC2)cc(-n2cc(C(F)(F)F)cn2)n1 [III-001]
[1]
  Pre-emergence action PHBPU: 100%
Avena fatua (AVEFA) [4]
  Pre-emergence action AVEFA: 90%
[24]
  Pre-emergence action LOLMU: 90%
Veronica persica (VERPE) [5]
  Pre-emergence action VERPE: 100%
[25]
  Pre-emergence action ABUTH: 90%
[6]
  Pre-emergence action AMARE: 90%
[26]
  herbicidal action against harmful plants (in words): good herbicidal action
[7]
  Herbicidal action against ALOMY: 70%
  Post-emergence action ALOMY: 90%
Stellaria media (STEME) [27]; [32]
  Herbicidal action against STEME: 90%
Stellaria media (STEME) [27]; [33]
  Post-emergence action STEME: 100%
[28]; [32]
  Herbicidal action against POLCO: 90%
[28]; [33]
  Post-emergence action POLCO: 90%
[8]
  Herbicidal action against ECHCG: 80%
  Post-emergence action ECHCG: 90%
Setaria viridis (SETVI) [9]
  Herbicidal action against SETVI: 90%
  Post-emergence action SETVI: 100%
Avena fatua (AVEFA) [29]; [32]
  Herbicidal action against AVEFA: 80%
Avena fatua (AVEFA) [29]; [33]
  Post-emergence action AVEFA: 90%
[30]; [32]
  Herbicidal action against LOLMU: 70%
[30]; [33]
  Post-emergence action LOLMU: 90%
[10]
  Herbicidal action against MATIN: 80%
[10]; [33]
  Post-emergence action MATIN: 90%
[31]; [32]
  Herbicidal action against ABUTH: 90%
[31]; [33]
  Post-emergence action ABUTH: 90%
[11]
  herbicidal action against harmful plants (in words): good herbicidal action
[12]
  Herbicidal action against ALOMY: 100%
  Pre-emergence action ALOMY: 100%
Stellaria media (STEME) [13]
  Herbicidal action against STEME: 90%
  Pre-emergence action STEME: 100%
[14]
  Herbicidal action against POLCO: 90%
  Pre-emergence action POLCO: 90%
[15]
  Herbicidal action against ECHCG: 100%
  Pre-emergence action ECHCG: 100%
Viola tricolor (VIOTR) [16]
  Herbicidal action against VIOTR: 100%
  Pre-emergence action VIOTR: 100%
Setaria viridis (SETVI) [17]
  Herbicidal action against SETVI: 100%
  Pre-emergence action SETVI: 100%
[18]
  Herbicidal action against MATIN: 100%
  Pre-emergence action MATIN: 100%
[19]
  Post-emergence action PHBPU: 100%
Viola tricolor (VIOTR) [20]
  Post-emergence action VIOTR: 100%
Veronica persica (VERPE) [22]
  Post-emergence action VERPE: 100%
[23]
  Post-emergence action AMARE: 100%
